Measurements published in patent US20240044921A1, “METHOD FOR EVALUATING BLOOD COAGULATION PERFORMANCE, AND METHOD FOR INSPECTING RISK OF THROMBOSIS” (FUJIMORI KOGYO CO., LTD., priority 2020, published 2024).

Tested on: whole blood
Assay: ROTEM blood coagulation analysis, blood collection tube with rubber stopper, Example 3
Type: cell-based, human
Details: heparan sulfate 1 μg/mL with calcium chloride, CTI 20 μg/mL, PKSI-527 40 μM (reagent (2))
Experimental: The present invention will be more specifically described below by referring to Examples, but the present invention is not limited to the embodiments below. The blood samples used in the Examples were collected from healthy humans unless otherwise described.
ROTEM (IL) was used to analyze blood coagulation.
Blood was collected using a blood collection tube (2 mL) containing 3.2% sodium citrate manufactured by Becton, Dickinson and Company. A rubber stopper is used for this blood collection tube. […]

heparan sulfate
coagulation-promoting effect of the rubber stopper: can be inhibited
